Literature values in patent publication US20260216201A1 (priority 2025, published 2026).

Conditions: n-octanol/buffer pH 7.4

**Q.** Which “apparent partition coefficient (log P)” value does the source give for Cc1cnc(NC(=O)C2=C(O)c3ccccc3S(=O)(=O)N2C)s1 [Meloxicam, 4-hydroxy-2-methyl-N-(5 methyl-2-thiazolyl)-2H-1,2-benzothiazine-3-carboxamide-1,1-dioxide] here?
**A.** The value was 0.1.
